We go through one compound from article PMC12087695, “A Phenotyping Tool for Seven Cytochrome P450 Enzymes and Two Transporters: Application to Examine the Effects of Clopidogrel and Gemfibrozil” (Clinical Pharmacology and Therapeutics, 2025).

One data set deals with T1, CYP1A2 (Homo sapiens, UniProt P05177).
T1 sequence (P05177 1-516): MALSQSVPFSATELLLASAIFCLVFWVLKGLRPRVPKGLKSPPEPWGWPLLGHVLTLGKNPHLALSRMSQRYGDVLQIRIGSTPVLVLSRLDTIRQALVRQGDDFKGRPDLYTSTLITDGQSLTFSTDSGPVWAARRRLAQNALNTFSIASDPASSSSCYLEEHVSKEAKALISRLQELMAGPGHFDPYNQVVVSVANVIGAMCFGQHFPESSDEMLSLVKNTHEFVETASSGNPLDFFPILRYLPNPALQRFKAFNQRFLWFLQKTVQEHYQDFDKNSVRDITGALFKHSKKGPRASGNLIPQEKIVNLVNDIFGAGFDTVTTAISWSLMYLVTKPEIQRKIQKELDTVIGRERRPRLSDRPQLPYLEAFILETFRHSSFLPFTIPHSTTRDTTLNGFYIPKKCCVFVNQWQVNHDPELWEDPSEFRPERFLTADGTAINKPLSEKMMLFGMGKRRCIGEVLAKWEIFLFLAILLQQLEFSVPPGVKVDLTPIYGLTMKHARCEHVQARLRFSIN
The experiment in a line: CYP1A2 phenotyping, paraxanthine/caffeine metabolic ratios. The conditions noted are these: index drug data, healthy volunteers. Type of data set: in vivo.

The test system of the next data set is CYP2C9. The conditions noted are these: index drug data, healthy volunteers.
The subject of the next data set is CYP2D6. The conditions noted are these: in vivo.
Another data set has as its target T2, CYP2C8 (Homo sapiens, UniProt P10632).
T2 sequence (P10632 1-490): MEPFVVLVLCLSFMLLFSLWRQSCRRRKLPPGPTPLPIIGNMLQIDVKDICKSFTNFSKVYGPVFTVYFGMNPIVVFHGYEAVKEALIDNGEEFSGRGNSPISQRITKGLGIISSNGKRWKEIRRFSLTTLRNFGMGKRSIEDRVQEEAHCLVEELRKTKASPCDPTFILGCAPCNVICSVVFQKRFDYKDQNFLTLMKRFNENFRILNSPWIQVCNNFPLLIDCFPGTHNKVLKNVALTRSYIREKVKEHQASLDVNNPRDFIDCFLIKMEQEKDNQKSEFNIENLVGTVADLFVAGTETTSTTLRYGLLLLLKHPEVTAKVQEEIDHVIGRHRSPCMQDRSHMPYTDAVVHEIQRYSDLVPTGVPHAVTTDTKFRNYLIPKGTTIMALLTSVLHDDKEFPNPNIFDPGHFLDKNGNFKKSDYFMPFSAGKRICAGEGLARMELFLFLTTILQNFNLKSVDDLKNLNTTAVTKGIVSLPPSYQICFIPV
The conditions noted are these: in vivo.

Another data set deals with OATP1B1. The experiment in a line: OATP1B1 endogenous biomarker GCDCA-3G in plasma. The conditions noted are these: GCDCA-3G biomarker data.
The next data set deals with T3, OATP1B3 (Homo sapiens, UniProt Q9NPD5).
T3 sequence (Q9NPD5 1-702): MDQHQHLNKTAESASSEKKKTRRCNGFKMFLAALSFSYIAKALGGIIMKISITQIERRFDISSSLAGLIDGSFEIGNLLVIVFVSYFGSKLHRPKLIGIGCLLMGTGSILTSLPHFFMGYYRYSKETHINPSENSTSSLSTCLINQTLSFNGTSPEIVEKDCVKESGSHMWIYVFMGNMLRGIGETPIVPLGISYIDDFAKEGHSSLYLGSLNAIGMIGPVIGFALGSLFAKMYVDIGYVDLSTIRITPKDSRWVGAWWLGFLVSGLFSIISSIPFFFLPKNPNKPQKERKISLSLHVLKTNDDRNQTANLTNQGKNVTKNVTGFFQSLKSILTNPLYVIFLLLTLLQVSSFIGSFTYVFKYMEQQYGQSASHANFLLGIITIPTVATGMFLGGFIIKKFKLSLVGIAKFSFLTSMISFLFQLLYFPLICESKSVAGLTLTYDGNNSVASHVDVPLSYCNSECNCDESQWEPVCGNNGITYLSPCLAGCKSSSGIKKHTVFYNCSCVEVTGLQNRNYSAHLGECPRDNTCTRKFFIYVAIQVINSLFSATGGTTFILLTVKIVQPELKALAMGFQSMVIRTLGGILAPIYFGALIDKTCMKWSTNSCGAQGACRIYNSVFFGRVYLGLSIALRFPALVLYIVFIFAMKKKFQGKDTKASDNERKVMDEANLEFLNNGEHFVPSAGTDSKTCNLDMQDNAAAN
Kind of data set: OATP1B3 endogenous biomarker GCDCA-3S in plasma. The conditions noted are these: GCDCA-3S biomarker data.

Protocol for CYP1A2: (§1) This open‐label cross‐over clinical trial included five study phases that each participant underwent in a randomized order (Table 1 ). There was at least 2‐week washout period between different study days.
(§2) On study days, venous blood samples from all participants were drawn from forearm vein cannulas before the administration of the pretreatment drugs and 5 minutes before and 0.5, 1, 1.5, 2, 3, 4, 6, 8, 12, and 23 hours after the administration of the index drugs for determination of index drug and metabolite concentrations. […] Blood glucose levels were monitored with CareSens Dual point‐of‐care blood glucose meter (i‐SENS Inc., Seoul, South Korea) at each venous blood sampling time point up to 12 hours after the administration of index drugs.
(§3) The flow rate was 0.3 mL/min, and the gradient program for the mobile phase B was from 20% to 90% over 7 minutes, wash at 90% 7–9.5 minutes, followed by balancing at 20% before next injection. […] The quality control samples for each analyte at relevant concentrations were quantified with each batch of plasma samples.
(§4) As for biomarkers, AUC0‐3h values in phases I–III and AUC0‐4h values in phases III–V for GCDCA‐3G and GCDCA‐3S and AUC0‐4h values in phases III and V for M430, M444, and solanidine were calculated with trapezoidal rule in Excel (Microsoft, Redmond, WA). […]
Protocol for CYP2C8: as §1, §2
The limit of quantification for repaglinide was 0.01 ng/mL. […] For GCDCA‐3G and GCDCA‐3S, the limit of quantification was 0.5 ng/mL and the between‐day precisions and accuracies were below 5% and ± 10% at relevant concentrations (10 and 200 ng/mL).
As for biomarkers, AUC0‐3h values in phases I–III and AUC0‐4h values in phases III–V for GCDCA‐3G and GCDCA‐3S and AUC0‐4h values in phases III and V for M430, M444, and solanidine were calculated with trapezoidal rule in Excel (Microsoft, Redmond, WA). 0‐hour metabolic ratio and AUC0‐4h ratios were calculated for M430/solanidine and M444/solanidine. […]
Protocol for CYP2C9: as §1, §2, §3, §4
Protocol for CYP2D6: as §1, §2, §3, §4
Protocol for OATP1B1: (§5) On study days, venous blood samples from all participants were drawn from forearm vein cannulas before the administration of the pretreatment drugs and 5 minutes before and 0.5, 1, 1.5, 2, 3, 4, 6, 8, 12, and 23 hours after the administration of the index drugs for determination of index drug and metabolite concentrations. Additional venous blood samples for biomarker analyses were drawn before the administration of the pretreatment drugs and 5 minutes before and 3 hours after the administration of the index drugs.
(§6) Plasma repaglinide, OATP1B1 biomarker GCDCA‐3G, OATP1B3 biomarker GCDCA‐3S, and CYP2D6 biomarker solanidine were analyzed using Sciex 5500 Qtrap and Sciex 6500 Qtrap LC–MS systems (AB Sciex, Toronto, ON, Canada) as previously described.[20], [21], [22] The limit of quantification for repaglinide was 0.01 ng/mL. The between‐day precisions (CV%) for quality controls (0.1 and 2.0 ng/mL) were below 10% and accuracies were within ±10%. For GCDCA‐3G and GCDCA‐3S, the limit of quantification was 0.5 ng/mL and the between‐day precisions and accuracies were below 5% and ± 10% at relevant concentrations (10 and 200 ng/mL).
(§7) As for biomarkers, AUC0‐3h values in phases I–III and AUC0‐4h values in phases III–V for GCDCA‐3G and GCDCA‐3S and AUC0‐4h values in phases III and V for M430, M444, and solanidine were calculated with trapezoidal rule in Excel (Microsoft, Redmond, WA).
(§8) Individuals with poor metabolism or transport function phenotype were excluded from respective statistical comparisons. Additionally, to keep comparisons balanced, subjects lacking pharmacokinetic variable data in any study phase were excluded from the respective analyses. Prior to statistical analyses with IBM SPSS Statistics Version 29.0 for Windows (IBM Corporation, Armonk, NY), all pharmacokinetic variable values were logarithmically transformed. Pharmacokinetic variables except T max were compared between different study phases by repeated‐measures analysis of variance with study phase as a within‐subjects factor. T max values were compared with Wilcoxon signed‐rank test. Differences with P < 0.05 after the Bonferroni correction were considered statistically significant. The data are presented as geometrical mean values or geometric mean ratios with geometric CV or 90% confidence intervals (CI) if not otherwise indicated.
Protocol for OATP1B3: as §5, §6, §7, §8

On to `Cc1ccc(C)c(OCCCC(C)(C)C(=O)O)c1` [Gemfibrozil, gemfibrozil], for which, on CYP1A2, the “CYP1A2 inhibition strength in the trial” value is given as “weak”. Further, in the data set on CYP2C9, the “CYP2C9 inhibition in the trial” value is “lack of any clinically meaningful”. In addition, the “CYP2D6 inhibition in the trial” value in the data set with CYP2D6 is on record as “lack of any clinically meaningful”. For the same compound, at CYP2C8, the “CYP2C8 inhibition strength in the trial” value was “strong”. In addition, in the data set on OATP1B1, the “OATP1B1 inhibition in the trial” value is “slightly inhibits and weak”. Further, the “OATP1B3 inhibition in the trial” value at OATP1B3 is “does not affect”.
